ChEMBL document CHEMBL1151725, “A cell wall-active lipopeptide from the fungus Pochonia bulbillosa” (2008)

System: Neurospora crassa
Experiment: Antifungal activity against Neurospora crassa os-1 mutant assessed as zone of protoplast production at 600 ng/disk after 36 to 48 hrs by microscopic examination
Type: functional

Question: How did the Activity turn out when CCCCCCCCCC(O)CCCC(=O)N[C@H](C(=O)N[C@H](C)C(=O)N[C@@H](C)C(=O)N[C@@H](C)C(=O)N[C@H](Cc1ccc(O)cc1)C(=O)N[C@H](C(=O)O)C(C)C)[C@@H](C)O (stereo partly specified) was run?
Answer: 20 mm
